Test in all cases: NCI tumour cell line growth inhibition, 48 h
For test [1], the system named is HOP-92 NSCLC.
The subject of test [2] is MALME-3M melanoma.
Test [3] deals with NCI-H460 lung.
Test [4] deals with RPMI-8226 leukemia.
The subject of test [5] is RXF 393 renal.
Test [6] concerns SK-MEL-28 melanoma.
In test [7] the test system is SNB-19 CNS.
Test [8] has as its system SNB-75 CNS.
The test system of test [9] is T-47D breast.
Test [10] relates to UO-31 renal.

The structures appear in SMILES notation.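 How tested: cells in 96-well plates exposed to compound for 48 hours at five concentrations. GI50 = concentration required for 50% inhibition of growth. The concentration for full growth arrest is given as TGI.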 Where only a bound is given, the exact number is not on record here.

For `COc1ccccc1CNCCCN1C(=O)c2ccc3c4c(ccc(c24)C1=O)C(=O)N(CCCNCCCCNCCCCN)C3=O`, the GI50 in test [1] was 1.87 µM; in [2], 0.971 µM; in test [3], 2.27 µM; in test [4], 1.83 µM; in test [5] it was 2.09 µM; in test [6], 2.1 µM. For the same compound, the GI50 was 2.72 µM in [7], 1.3 µM in test [8], 0.782 µM in test [9] and 3.44 µM in [10]. Moreover, the TGI in test [1] is 8.66 µM; in test [2], 2.48 µM; in test [3] it was 5.8 µM; in test [4], 9.62 µM; in [5], 10.1 µM; in [6] it was 5.9 µM. Moreover, the TGI in test [7] is 10.1 µM; in test [8] it was 3.68 µM; in test [9], 3.14 µM; in test [10], greater than 67.3 µM.
Regarding `Cn1cc(C2=C(c3c4n(c5ccccc35)CC(CN)C4)C(=O)NC2=O)c2ccccc21` (stereo not given), the GI50 in test [1] is 4.32 µM; in test [2] it was 4.17 µM; in test [3], 3.79 µM; in test [4], 4.57 µM; in [5], 2.87 µM; in test [6], 3.37 µM. Besides, the GI50 in test [7] is 5.39 µM; in [8], 0.246 µM; in test [9], 5.26 µM; in test [10], 2.83 µM. The TGI worked out at 11.6 µM in [1]; 8.52 µM in test [2]; 7.8 µM in [3]; 11.1 µM in [4]; 6.19 µM in test [5]; 7.01 µM in test [6]. Besides, the TGI in test [7] worked out at 15.3 µM; in test [8] it was 2.93 µM; in [9], 13.5 µM; in test [10], 8.27 µM.
For the compound `Fc1ccc(CNc2c3ccccc3nc3ccccc23)cc1`, the GI50 in [1] is 2.25 µM; in [2] it was 2.18 µM; in test [3], 2.3 µM; in [4], 2.03 µM; in test [5], 2.07 µM; in test [6], 3.27 µM. For the same compound, the GI50 is 3.66 µM in [7], 2.01 µM in test [8], 2.53 µM in [9] and 1.2 µM in test [10]. Moreover, the TGI amounted to 11.5 µM in test [1]; 5.48 µM in [2]; 6.69 µM in test [3]; 5.79 µM in [4]; 5.4 µM in test [5]; 11.6 µM in [6]. The TGI amounted to 15.4 µM in test [7], 10.8 µM in test [8], 10 µM in [9] and 4.14 µM in test [10].
As for `CCOC(=O)c1ccc2c(c1)[n+](=O)c(C(=O)c1ccc3ccccc3c1)c(C(F)(F)F)n2[O-]`, the GI50 in test [1] is 1.2 µM; in [2] it was 1.68 µM; in [3], 1.69 µM; in test [4] it was 1.1 µM; in [5], 1.73 µM; in test [6] it was 1.66 µM. For the same compound, the GI50 in test [7] was 1.7 µM; in test [8], 1.13 µM; in test [9] it was 0.86 µM; in [10], 1.3 µM. In addition, the TGI in [1] was determined as 2.52 µM; in test [2] it was 3.46 µM; in test [3], 3.2 µM; in test [4], 3.63 µM; in [5] it was 3.26 µM; in test [6], 3.02 µM. Besides, the TGI in test [7] stood at 3.07 µM; in test [8] it was 2.34 µM; in test [9] it was 2.32 µM; in test [10] it was 2.57 µM.
For the compound `CC(C)(C)C(=O)OCOP(=O)(OCOC(=O)C(C)(C)C)C1CCCN(OC(=O)c2ccccc2)C1=O` (stereo not given), the GI50 in test [1] was 1.25 µM; in test [2] it was 0.457 µM; in test [3] it was 1.11 µM; in test [4], 0.605 µM; in test [5], 0.545 µM; in test [6] it was 1.05 µM. For the same compound, the GI50 is 1.51 µM in test [7], 5.1 µM in [8], 1.38 µM in test [9] and 0.297 µM in [10]. The TGI in [1] was found to be 35.8 µM; in [2], 5.44 µM; in test [3], 15.3 µM; in test [4], 3.51 µM; in test [5] it was 4.8 µM; in [6] it was 3.57 µM. In addition, the TGI stood at 17 µM in [7], 93.1 µM in test [8], 16.7 µM in test [9] and 2.36 µM in test [10].
In the case of `CCOC(=O)C1=C(N)Oc2c(sc3c(C)cccc23)C1c1ccc(Cl)cc1` (stereo not given), the GI50 in test [1] is 3.83 µM; in test [2], 5.19 µM; in test [3] it was 3.29 µM; in test [4], 3.26 µM; in [5] it was 1.45 µM; in test [6] it was 10.3 µM. Besides, the GI50 in test [7] was 3.71 µM; in [8], 0.643 µM; in [9], 2.79 µM; in [10], 3.03 µM. Also, the TGI in test [1] came out at 20.7 µM; in test [2], 19.6 µM; in [3], 11.6 µM; in test [4], 13.1 µM; in [5] it was 4.47 µM; in [6], 23.6 µM. Besides, the TGI in test [7] is 16 µM; in test [8] it was 7.79 µM; in test [9], 18.8 µM; in test [10], 16.7 µM.
In the case of `CCOc1cc(C=O)c2c(ccc3ccc(OC)c(OC)c32)c1OC`, the TGI in test [1], in test [2], in test [3], in test [4], in test [5] and in test [6] was greater than 100 µM throughout. Besides, the TGI in test [7], in [8], in test [9] and in test [10] was greater than 100 µM throughout.

These data come from PubChem BioAssay (NCI).
